Measured values published in US20200407717A1, “METHODS OF MODULATING ANTISENSE ACTIVITY” (Ionis Pharmaceuticals, Inc., priority 2018, published 2020).
e = 2'-O-(2-methoxyethyl) (MOE); d = 2'-deoxy (DNA)

Test system: Drosha mRNA
Experiment: Antisense activity by RT-qPCR, Drosha, A431 cells
Type: cell-based, Human
Procedure: A431 cells were grown at 10,000 cells per well and pre-treated with a variety of growth factors to determine if the addition of exogenous growth factors affects antisense activity or uptake of modified antisense oligonucleotides in a cell. The growth factors used were EGF, insulin growth factor (IGF), transforming growth factor (TGF), […] (VEGF), hepatocyte growth factor (HGF), platelet growth factor (PGF) and fibroblasts growth factor (FGF). To test antisense activity, cells were treated for 4 hours with a growth factor or vehicle alone, and then treated with compound no. 25690 (complementary to Drosha), compound no. 395254 (complementary to Malat1), or vehicle alone. RNA was isolated from the cells and Drosha or Malat1 RNA levels were measured by RT-qPCR. Human primer probe set 13816 (forward sequence […], designated herein as SEQ ID NO: 3; reverse sequence […], designated herein as SEQ ID NO: 4; probe sequence […], designated herein as SEQ ID NO: 5) was used to measure Drosha mRNA levels and primer probe set RTS2736 (forward sequence […], designated herein as SEQ ID NO: 6; reverse sequence […], designated herein as SEQ ID NO: 7; probe sequence TGCCACATCGCCACCCCGT, designated herein as SEQ ID NO: 8) was used to measure Malat1 RNA levels. Drosha and Malat1 RNA levels were normalized to total RNA content, as measured by RIBOGREEN®. Results are presented in the tables below as normalized RNA levels, relative to untreated control cells.
A431 cells were treated with EGF or TGF at 200 ng/mL in the presence or absence of 1 μM of the EGFR tyrosine kinase inhibitor PD174265. The cells were then treated with compound no. 25690 or compound no. 395254 as in Example 8. Total RNA was isolated and analyzed by RT-qPCR, as in Example 8.
Following siRNA treatment, cells were treated with compound no. 25690 or compound no. 395254 in the presence or absence of EGF. 16 hours after treatment with a PS-ASO with or without EGF, cells were harvested, and RNA levels were analyzed via RT-qPCR as in Example 8.

AGGAAGGAAGCTGGCGATCT (sugars from the 5' end e5 d10 e5, all phosphorothioate, methylation of C not given here) [compound 25690]
Drosha mRNA (% Control) (6250 nM, Control): 66.2 % Control | Drosha mRNA (% Control) (6250 nM, Control Luciferase siRNA): 35.2 % Control | Drosha mRNA (% Control) (6250 nM, Control Luciferase siRNA, Table 26): 47.8 % Control | Drosha mRNA (% Control) (6250 nM, Control luciferase + EGF): 40.9 % Control | Drosha mRNA (% Control) (6250 nM, Control, Table 20): 54.0 % Control | Drosha mRNA (% Control) (6250 nM, EGF): 48.4 % Control | Drosha mRNA (% Control) (6250 nM, EGF+PD174265): 64.7 % Control | Drosha mRNA (% Control) (6250 nM, EGFR siRNA-1): 41.9 % Control | Drosha mRNA (% Control) (6250 nM, EGFR siRNA-2): 39.2 % Control | Drosha mRNA (% Control) (6250 nM, EGFR siRNA-2 + EGF): 62.5 % Control | Drosha mRNA (% Control) (6250 nM, EGFR siRNA-2, Table 26): 64.8 % Control | Drosha mRNA (% Control) (6250 nM, TGF): 43.1 % Control | Drosha mRNA (% Control) (6250 nM, TGF+PD174265): 57.0 % Control | Drosha mRNA (% Control) (10000 nM, Control): 48.2 % Control | Drosha mRNA (% Control) (10000 nM, EGF): 27.7 % Control | Drosha mRNA (% Control) (10000 nM, TGF): 29.7 % Control | Drosha mRNA (% Control) (12500 nM, Control): 56.4 % Control | Drosha mRNA (% Control) (12500 nM, Control Luciferase siRNA): 29.3 % Control | Drosha mRNA (% Control) (12500 nM, Control Luciferase siRNA, Table 26): 41.0 % Control | Drosha mRNA (% Control) (12500 nM, Control luciferase + EGF): 30.9 % Control | Drosha mRNA (% Control) (12500 nM, Control, Table 20): 47.6 % Control | Drosha mRNA (% Control) (12500 nM, EGF): 40.1 % Control | Drosha mRNA (% Control) (12500 nM, EGF+PD174265): 53.6 % Control | Drosha mRNA (% Control) (12500 nM, EGFR siRNA-1): 32.4 % Control | Drosha mRNA (% Control) (12500 nM, EGFR siRNA-2): 39.1 % Control | Drosha mRNA (% Control) (12500 nM, EGFR siRNA-2 + EGF): 47.1 % Control | Drosha mRNA (% Control) (12500 nM, EGFR siRNA-2, Table 26): 49.2 % Control | Drosha mRNA (% Control) (12500 nM, TGF): 29.7 % Control | Drosha mRNA (% Control) (12500 nM, TGF+PD174265): 44.9 % Control | Drosha mRNA (% Control) (20000 nM, Control): 48.8 % Control | Drosha mRNA (% Control) (20000 nM, EGF): 25.4 % Control | Drosha mRNA (% Control) (20000 nM, TGF): 25.5 % Control | Drosha mRNA (% Control) (25000 nM, Control): 45.2 % Control | Drosha mRNA (% Control) (25000 nM, Control Luciferase siRNA): 24.0 % Control | Drosha mRNA (% Control) (25000 nM, Control Luciferase siRNA, Table 26): 37.2 % Control | Drosha mRNA (% Control) (25000 nM, Control luciferase + EGF): 27.1 % Control | Drosha mRNA (% Control) (25000 nM, Control, Table 20): 38.9 % Control | Drosha mRNA (% Control) (25000 nM, EGF): 40.1 % Control | Drosha mRNA (% Control) (25000 nM, EGF+PD174265): 51.2 % Control | Drosha mRNA (% Control) (25000 nM, EGFR siRNA-1): 29.9 % Control | Drosha mRNA (% Control) (25000 nM, EGFR siRNA-2): 35.5 % Control | Drosha mRNA (% Control) (25000 nM, EGFR siRNA-2 + EGF): 41.2 % Control | Drosha mRNA (% Control) (25000 nM, EGFR siRNA-2, Table 26): 42.3 % Control | Drosha mRNA (% Control) (25000 nM, TGF): 23.5 % Control | Drosha mRNA (% Control) (25000 nM, TGF+PD174265): 37.1 % Control | Drosha mRNA (% Control) (40000 nM, Control): 44.3 % Control | Drosha mRNA (% Control) (40000 nM, EGF): 23.6 % Control | Drosha mRNA (% Control) (40000 nM, TGF): 22.7 % Control | Drosha mRNA (% Control) (50000 nM, Control): 40.2 % Control | Drosha mRNA (% Control) (50000 nM, Control Luciferase siRNA): 22.4 % Control | Drosha mRNA (% Control) (50000 nM, Control Luciferase siRNA, Table 26): 33.1 % Control | Drosha mRNA (% Control) (50000 nM, Control luciferase + EGF): 23.2 % Control | Drosha mRNA (% Control) (50000 nM, Control, Table 20): 28.2 % Control | Drosha mRNA (% Control) (50000 nM, EGF): 35.1 % Control | Drosha mRNA (% Control) (50000 nM, EGF+PD174265): 45.3 % Control | Drosha mRNA (% Control) (50000 nM, EGFR siRNA-1): 25.7 % Control | Drosha mRNA (% Control) (50000 nM, EGFR siRNA-2): 31.2 % Control | Drosha mRNA (% Control) (50000 nM, EGFR siRNA-2 + EGF): 31.3 % Control | Drosha mRNA (% Control) (50000 nM, EGFR siRNA-2, Table 26): 29.3 % Control | Drosha mRNA (% Control) (50000 nM, TGF): 17.2 % Control | Drosha mRNA (% Control) (50000 nM, TGF+PD174265): 35.2 % Control | Drosha mRNA (% Control) (100000 nM, Control): 39.2 % Control | Drosha mRNA (% Control) (100000 nM, Control Luciferase siRNA): 19.7 % Control | Drosha mRNA (% Control) (100000 nM, Control Luciferase siRNA, Table 26): 32.1 % Control | Drosha mRNA (% Control) (100000 nM, Control luciferase + EGF): 21.0 % Control | Drosha mRNA (% Control) (100000 nM, Control, Table 20): 25.2 % Control | Drosha mRNA (% Control) (100000 nM, EGF): 32.9 % Control | Drosha mRNA (% Control) (100000 nM, EGF+PD174265): 35.2 % Control | Drosha mRNA (% Control) (100000 nM, EGFR siRNA-1): 24.1 % Control | Drosha mRNA (% Control) (100000 nM, EGFR siRNA-2): 28.4 % Control | Drosha mRNA (% Control) (100000 nM, EGFR siRNA-2 + EGF): 30.4 % Control | Drosha mRNA (% Control) (100000 nM, EGFR siRNA-2, Table 26): 31.2 % Control | Drosha mRNA (% Control) (100000 nM, TGF): 15.2 % Control | Drosha mRNA (% Control) (100000 nM, TGF+PD174265): 30.2 % Control | Drosha mRNA (% Control) (200000 nM, Control): 30.2 % Control | Drosha mRNA (% Control) (200000 nM, Control Luciferase siRNA): 14.9 % Control | Drosha mRNA (% Control) (200000 nM, Control Luciferase siRNA, Table 26): 25.2 % Control | Drosha mRNA (% Control) (200000 nM, Control luciferase + EGF): 21.4 % Control | Drosha mRNA (% Control) (200000 nM, Control, Table 20): 21.2 % Control | Drosha mRNA (% Control) (200000 nM, EGF): 25.1 % Control | Drosha mRNA (% Control) (200000 nM, EGF+PD174265): 33.2 % Control | Drosha mRNA (% Control) (200000 nM, EGFR siRNA-1): 18.5 % Control | Drosha mRNA (% Control) (200000 nM, EGFR siRNA-2): 20.8 % Control | Drosha mRNA (% Control) (200000 nM, EGFR siRNA-2 + EGF): 25.1 % Control | Drosha mRNA (% Control) (200000 nM, EGFR siRNA-2, Table 26): 26.1 % Control | Drosha mRNA (% Control) (200000 nM, TGF): 15.2 % Control | Drosha mRNA (% Control) (200000 nM, TGF+PD174265): 27.2 % Control | IC50 (Control (no growth factor), Table 15): 1470 ± 50 nM | IC50 (Control Luciferase siRNA, Table 24): 1310 ± 40 nM | IC50 (Control Luciferase siRNA, Table 26): 1500 ± 50 nM | IC50 (Control luciferase + EGF, Table 26): 630 ± 40 nM | IC50 (Control, Table 18): 1620 ± 90 nM | IC50 (Control, Table 20): 1390 ± 60 nM | IC50 (EGF 200 ng/mL + 1 μM PD174265, Table 18): 1500 ± 50 nM | IC50 (EGF 200 ng/mL, Table 18): 580 ± 70 nM | IC50 (EGF pre-treatment 4 hours, Table 15): 600 ± 80 nM | IC50 (EGFR siRNA-1, Table 24): 2110 ± 100 nM | IC50 (EGFR siRNA-2 + EGF, Table 26): 2330 ± 110 nM | IC50 (EGFR siRNA-2, Table 24): 2790 ± 70 nM | IC50 (EGFR siRNA-2, Table 26): 2730 ± 100 nM | IC50 (TGF 200 ng/mL + 1 μM PD174265, Table 20): 1490 ± 40 nM | IC50 (TGF 200 ng/mL, Table 20): 500 ± 40 nM | IC50 (TGF pre-treatment 4 hours, Table 15): 590 ± 70 nM | half maximal inhibitory concentration, Drosha (cells treated with IGF, FGF, HGF, VEGF or PGF relative to PS-ASO alone (data not shown)): unchanged
